Where a name gives a salt, the structure may show the parent alone.
Key:
TEM-1 = target: T1, TEM-1 (Escherichia coli, UniProt P62593); experiment: β-lactamase inhibition, Nitrocefin hydrolysis; type: biochemical; conditions: Experiment 2; enzyme 1 nM, Nitrocefin 0.1 mM; read-out: IC50 TEM-1
T1 construct: purchased
Method: (§1) Nitrocefin, a kind of cephalosporin antibiotics, is sensitive to most of β-lactamases, and changes in color after being hydrolyzed. The hydrolysis rate of Nitrocefin was measured by real-time recording corresponding absorbance of reaction system. β-Lactamase inhibitors could inhibit hydrolysis of the enzymes to Nitrocefin, and reduce hydrolysis rate. By measuring reaction rates in the same reaction system under different inhibitor concentrations, the IC50 (half maximal inhibitory concentration) values of inhibitors were calculated.
(§2) Nitrocefin was dissolved in DMSO to form a solution with concentration of 2 mM, which was sub-packaged and stored at −20° C. The concentration of purchased β-lactamases mother liquor was 1 mg/mL, and the mother liquor was dissolved in 50% glycerol. A part of mother liquor was taken and diluted by 1000 times in reaction solution, sub-packaged and stored at ˜20° C.
(§3) The compounds to be tested were dissolved in DMSO to form a mother liquor with concentration of 10 mM. If not used that day, the mother liquor was stored at −20° C. Its test final concentrations were: 100 μM, 25 μM, 6.25 μM, 1.563 μM, 390.6 nM, 97.66 nM, 24.41 nM, 6.10 nM, 1.53 nM, 0.381 nM, 0.095 nM.

KPC-2 = target: T2, KPC-2 (Klebsiella pneumoniae, UniProt Q9F663); experiment: β-lactamase inhibition, Nitrocefin hydrolysis; type: biochemical; conditions: Experiment 2; enzyme 1.28 nM, Nitrocefin 0.1 mM; read-out: IC50 KPC-2
T2 construct: purchased
T2 sequence (Q9F663 25-293, looked up, species assumed): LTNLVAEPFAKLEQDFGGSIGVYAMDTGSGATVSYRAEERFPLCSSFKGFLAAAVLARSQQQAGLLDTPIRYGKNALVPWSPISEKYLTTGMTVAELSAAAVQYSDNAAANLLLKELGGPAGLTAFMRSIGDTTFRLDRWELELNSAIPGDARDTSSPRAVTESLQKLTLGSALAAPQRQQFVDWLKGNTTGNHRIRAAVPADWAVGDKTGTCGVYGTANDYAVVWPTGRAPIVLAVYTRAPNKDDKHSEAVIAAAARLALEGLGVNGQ
Method: as §1, §2, §3

CTX-M-1 = target: T3, CTX-M-1 (Escherichia coli, UniProt P28585); experiment: β-lactamase inhibition, Nitrocefin hydrolysis; type: biochemical; conditions: Experiment 2; enzyme 0.2 nM, Nitrocefin 0.1 mM
T3 construct: purchased
T3 sequence (P28585 29-291): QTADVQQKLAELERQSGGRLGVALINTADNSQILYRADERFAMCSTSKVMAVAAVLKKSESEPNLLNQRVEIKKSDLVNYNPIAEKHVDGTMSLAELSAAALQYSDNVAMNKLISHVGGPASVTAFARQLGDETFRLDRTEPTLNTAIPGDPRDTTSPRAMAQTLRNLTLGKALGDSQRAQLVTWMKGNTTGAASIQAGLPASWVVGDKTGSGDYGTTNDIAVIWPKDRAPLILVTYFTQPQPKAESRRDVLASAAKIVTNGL
Method: as §1, §2, §3

AmpC = target: T4, AmpC (UniProt P05364); experiment: β-lactamase inhibition, Nitrocefin hydrolysis; type: biochemical; conditions: read-out: IC50 AmpC; Experiment 2; enzyme 1.6 nM, Nitrocefin 0.1 mM
T4 construct: The concentration of purchased β-lactamases mother liquor was 1 mg/mL, and the mother liquor was dissolved in 50% glycerol
Method: as §1, §2, §3

[1] = tested on: Klebsiella pneumoniae 7450kpn-597 (KPC, ESBLs); experiment: In vitro antibacterial activity on clinically separated CRE strain, agar dilution MIC; type: cell-based; conditions: Table 3, 7450kpn-597 Klebsiella pneumoniae
Excerpt: (§4) Experimental strains: all experimental standard bacterial strains for enzyme production were purchased from ATCC, and the clinically separated CRE strain was purchased from Southwest Hospital of the Third Military Medical University.
(§5) Experimental Method: Agar dilution method, referring to M100-S23: Performance Standards for Antimicrobial Susceptibility Testing: Twenty-Third Informational Supplement (Clinical And Laboratory Standards Institute, 2013). Minimal inhibitory concentration (MIC, μg/mL) was calculated.

[2] = tested on: Enterobacter cloacae 7495ecl-296 (IMP, ESBLs, AmpC); experiment: as above; type: cell-based; conditions: Table 3, 7495ecl-296 Enterobacter cloacae
Excerpt: as §4, §5

[3] = tested on: Escherichia coli 7438eco-639 (NDM, ESBLs); experiment: as above; type: cell-based; conditions: Table 3, 7438eco-639 Escherichia coli
Excerpt: as §4, §5

[4] = tested on: Enterobacter cloacae 7498ecl-299 (ESBLs, AmpC); experiment: as above; type: cell-based; conditions: Table 3, 7498ecl-299 Enterobacter cloacae
Excerpt: as §4, §5

[5] = tested on: Enterobacter cloacae 7513ecl-314 (AmpC); experiment: as above; type: cell-based; conditions: Table 3, 7513ecl-314 Enterobacter cloacae
Excerpt: as §4, §5

[6] = tested on: Citrobacter freundii 7521cfr-169 (NDM, ESBLs, AmpC); experiment: as above; type: cell-based; conditions: Table 3, 7521cfr-169 Citrobacter freundii
Excerpt: as §4, §5

[7] = tested on: Klebsiella pneumoniae 7484kpn-631 (IMP, ESBLs); experiment: as above; type: cell-based; conditions: Table 3, 7484kpn-631 Klebsiella pneumoniae
Excerpt: as §4, §5

[8] = tested on: Enterobacter cloacae 7494ecl-295 (NDM, ESBLs, AmpC); experiment: as above; type: cell-based; conditions: Table 3, 7494ecl-295 Enterobacter cloacae
Excerpt: as §4, §5

[9] = tested on: Citrobacter freundii 7520cfr-167 (NDM, OXA-10, ESBLs); experiment: as above; type: cell-based; conditions: Table 3, 7520cfr-167 Citrobacter freundii
Excerpt: as §4, §5

[10] = tested on: Klebsiella pneumoniae 7463kpn-610 (ESBLs); experiment: as above; type: cell-based; conditions: Table 3, 7463kpn-610 Klebsiella pneumoniae
Excerpt: as §4, §5

[11] = tested on: Enterobacter cloacae BAA-2341 (KPC); experiment: In vitro antibacterial activity, agar dilution MIC; type: cell-based; conditions: BAA2341; Table 2; BAA-2341 Enterobacter cloacae, KPC; read-out: MIC
Excerpt: as §4, §5

[12] = tested on: Klebsiella pneumoniae BAA-1900 (KPC); experiment: In vitro antibacterial activity, agar dilution MIC; type: cell-based; conditions: BAA1900, Table 2, BAA-1900 Klebsiella pneumoniae, KPC, read-out: MIC
Excerpt: as §4, §5

[13] = tested on: Klebsiella oxytoca ATCC-51983 (SHV-5); experiment: In vitro antibacterial activity, agar dilution MIC; type: cell-based; conditions: ATCC51983; Table 2; ATCC-51983 Klebsiella oxytoca, SHV-5; read-out: MIC
Excerpt: as §4, §5

[14] = tested on: Klebsiella pneumoniae BAA-2524 (OXA-48); experiment: In vitro antibacterial activity, agar dilution MIC; type: cell-based; conditions: BAA2524; Table 2; BAA-2524 Klebsiella pneumoniae, OXA-48; read-out: MIC
Excerpt: as §4, §5

[15] = tested on: Klebsiella pneumoniae BAA-2146 (NDM-1); experiment: In vitro antibacterial activity, agar dilution MIC; type: cell-based; conditions: BAA2146, Table 2, BAA-2146 Klebsiella pneumoniae, NDM-1, read-out: MIC
Excerpt: as §4, §5

[16] = tested on: Enterobacter hormaechei BAA-2082 (KPC); experiment: In vitro antibacterial activity, agar dilution MIC; type: cell-based; conditions: BAA2082; Table 2; BAA-2082 Enterobacter hormaechei, KPC; read-out: MIC
Excerpt: as §4, §5

[17] = tested on: Escherichia coli BAA-2523 (OXA-48); experiment: In vitro antibacterial activity, agar dilution MIC; type: cell-based; conditions: BAA2523, Table 2, BAA-2523 Escherichia coli, OXA-48, read-out: MIC
Excerpt: as §4, §5

[18] = tested on: Escherichia coli BAA-2452 (NDM-1); experiment: In vitro antibacterial activity, agar dilution MIC; type: cell-based; conditions: BAA2452, Table 2, BAA-2452 Escherichia coli, NDM-1, read-out: MIC
Excerpt: as §4, §5

T1 sequence (P62593 24-286 limits assumed): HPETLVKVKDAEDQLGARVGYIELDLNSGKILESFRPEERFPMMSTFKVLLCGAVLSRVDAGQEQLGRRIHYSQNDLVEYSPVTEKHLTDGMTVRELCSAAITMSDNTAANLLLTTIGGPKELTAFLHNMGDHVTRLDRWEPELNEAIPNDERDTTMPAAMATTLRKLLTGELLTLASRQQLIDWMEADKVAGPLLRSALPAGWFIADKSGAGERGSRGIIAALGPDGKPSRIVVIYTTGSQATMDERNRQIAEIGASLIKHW

CN1CC2(CC(NC(=O)[C@@H]3CC[C@@H]4CN3C(=O)N4OS(=O)(=O)O)C2)C1 [Compound 6, sodium (2S,5R)-2-((2-methyl-2-azaspiro[3.3]heptan-6-yl)carbamoyl)-7-oxo-1,6-diazabicyclo[3.2.1]octan-6-yl hydrogen sulfate]
42.3 nM: IC50 (KPC-2)
1 µg/mL: MIC [17]
40.8 nM: IC50 (CTX-M-1)
17.7 nM: IC50 (AmpC)
4 µg/mL: MIC [7] | MIC [13] | MIC [15]
2 µg/mL: MIC [1] | MIC [2] | MIC [3] | MIC [4] | MIC [5] | MIC [6] | MIC [8] | MIC [9] | MIC [10] | MIC [11] | MIC [12] | MIC [14] | MIC [16] | MIC [18]
30.1 nM: IC50 (TEM-1)
